The results in this text go back to PubChem BioAssay (NCI).

The structures appear in SMILES notation.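 Tested at 5 concentrations; 48 h exposure; 96-well plates; endpoints linearly interpolated, else capped at highest concentration. The concentration for 50% growth inhibition is given as GI50. TGI denotes the concentration required for complete inhibition of growth.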 Some results are limits rather than exact numbers.

Some test systems named below: 786-0 renal; PC-3 prostate; SF-268 CNS; HOP-92 NSCLC; NCI/ADR-RES ovarian; NCI-H460 lung; SNB-75 CNS; HL-60(TB) leukemia; UO-31 renal; RXF 393 renal.
Assay in all cases: NCI tumour cell line growth inhibition, 48 h

Regarding `O=C1OC(CN2CCOCC2)CN1/N=C/c1ccc([N+](=O)[O-])o1` (stereo not drawn), the TGI with 786-0 renal, in the test on PC-3 prostate, in the test with SF-268 CNS, with HOP-92 NSCLC, in the test on NCI/ADR-RES ovarian and with NCI-H460 lung was over 100 µM each time. Further, the TGI in the test with SNB-75 CNS, with HL-60(TB) leukemia and in the test on UO-31 renal was over 100 µM in each case.
In the case of `COC(=O)[C@@H](C)C[C@H](Cc1ccccc1)NC(=O)c1csc([C@@H](C[C@H](C(C)C)N(C)C(=O)[C@H](C)NC(=O)[C@H]2CCCCN2C)OC(C)=O)n1`, the GI50 is 1.05 µM with 786-0 renal; 0.821 µM in the test on PC-3 prostate; 1.65 µM with SF-268 CNS; 0.982 µM with HOP-92 NSCLC; over 25 µM with NCI/ADR-RES ovarian; 1.18 µM in the test with NCI-H460 lung. Moreover, the values for the GI50 with SNB-75 CNS, with RXF 393 renal and with UO-31 renal were 0.47 µM, 1 µM and 19.2 µM, respectively. Besides, the TGI with 786-0 renal, in the test on PC-3 prostate, in the test with SF-268 CNS, in the test with HOP-92 NSCLC, in the test on NCI/ADR-RES ovarian and with NCI-H460 lung was over 25 µM each time. The TGI in the test with SNB-75 CNS is 1.71 µM; in the test on RXF 393 renal it was 24.2 µM; with UO-31 renal, over 25 µM.
As to `CNC(=O)OCC1C2=C(C(=O)C(C)=C(N)C2=O)N2CC3C(N3C)C12OC` (stereo not drawn), the TGI with 786-0 renal is 21.2 µM; with PC-3 prostate, 64.7 µM; in the test on HOP-92 NSCLC it was over 100 µM; with NCI/ADR-RES ovarian, over 100 µM; with NCI-H460 lung, 10 µM; in the test on RXF 393 renal it was 57.1 µM. Also, in the test with HL-60(TB) leukemia, the TGI amounted to 21.1 µM.
As to `O=C1C=CC(O)C2C1CC13SSC4(CC5C(=O)C=CC(O)C5N4C1=O)C(=O)N23` (stereo not drawn), the TGI with 786-0 renal was 0.49 µM; with PC-3 prostate it was 1.13 µM; in the test on SF-268 CNS it was 5.85 µM; in the test on HOP-92 NSCLC, 0.573 µM; in the test with NCI/ADR-RES ovarian, 0.093 µM; with NCI-H460 lung it was over 34.2 µM. Moreover, the TGI was found to be 5.14 µM with SNB-75 CNS, 1.48 µM with RXF 393 renal and 1.27 µM in the test with UO-31 renal.
With `Cc1c(Sc2ccccc2)[n+](=O)c2cc(Cl)c(Cl)cc2n1[O-]`, the GI50 in the test on 786-0 renal was 22 µM; with PC-3 prostate it was over 100 µM; with SF-268 CNS, over 100 µM; with HOP-92 NSCLC it was 20 µM; in the test with NCI/ADR-RES ovarian, over 100 µM; in the test on NCI-H460 lung it was over 100 µM. Besides, the results for the GI50 in the test with SNB-75 CNS, in the test on RXF 393 renal and in the test on UO-31 renal were over 100 µM, 23.2 µM and over 100 µM, respectively. For the same molecule, the TGI in the test with 786-0 renal is 43.4 µM; with PC-3 prostate, over 100 µM; in the test on SF-268 CNS it was over 100 µM; in the test with HOP-92 NSCLC, 51.4 µM; in the test on NCI/ADR-RES ovarian, over 100 µM; with NCI-H460 lung, over 100 µM. Further, the TGI with SNB-75 CNS is over 100 µM; in the test on RXF 393 renal it was 90.1 µM; in the test on UO-31 renal it was over 100 µM.
Consider `Cc1cc2c(cc1N)C(C)C1(CCC(=O)N2Cc2ccccc2)OCCO1` (stereo not drawn), for which the TGI in the test with 786-0 renal, with PC-3 prostate, in the test with SF-268 CNS, in the test on HOP-92 NSCLC, in the test on NCI/ADR-RES ovarian and in the test with NCI-H460 lung was over 100 µM each time. Also, the TGI with SNB-75 CNS and in the test on UO-31 renal was over 100 µM throughout.
Take `Clc1nc(Cl)c2ncn(Cc3ccc(Cn4cnc5c(Cl)nc(Cl)nc54)cc3)c2n1`: the GI50 is 1.6 µM in the test on 786-0 renal; 1.56 µM in the test on PC-3 prostate; 3.4 µM in the test with SF-268 CNS; 7.64 µM in the test with NCI/ADR-RES ovarian; 4.75 µM in the test with NCI-H460 lung; 0.0475 µM with HL-60(TB) leukemia. Moreover, in the test on UO-31 renal, the GI50 is 5.01 µM. For the same molecule, the TGI with 786-0 renal was found to be 11.2 µM; in the test on PC-3 prostate, 16.3 µM; with SF-268 CNS, 23.4 µM; in the test with NCI/ADR-RES ovarian, 28.8 µM; with NCI-H460 lung, 22.2 µM; in the test on SNB-75 CNS it was 37.6 µM. In addition, the TGI was 0.555 µM in the test on RXF 393 renal, 4.4 µM with HL-60(TB) leukemia and 20.1 µM in the test on UO-31 renal.
On to `Cc1cc(OCc2nnc3n2N=C(c2ccc(Cl)cc2Cl)CS3)ccc1Cl`, for which the GI50 is over 100 µM in the test with 786-0 renal; 51.3 µM in the test with PC-3 prostate; 73.4 µM in the test on SF-268 CNS; over 100 µM in the test on HOP-92 NSCLC; 51.8 µM in the test on NCI/ADR-RES ovarian; 62.8 µM with NCI-H460 lung. Moreover, the GI50 was 52.2 µM in the test on RXF 393 renal, 45.9 µM in the test with HL-60(TB) leukemia and 34 µM with UO-31 renal. The TGI in the test on 786-0 renal, in the test with PC-3 prostate, in the test on SF-268 CNS, with HOP-92 NSCLC, in the test with NCI/ADR-RES ovarian and in the test with NCI-H460 lung was over 100 µM each time. The TGI with RXF 393 renal, in the test on HL-60(TB) leukemia and with UO-31 renal was over 100 µM each time.
Turning to `COc1cc2c(c(OC3OC(CO)C(O)C(O)C3O)c1)C(=O)CC(c1ccc(O)cc1)O2` (stereo not drawn), the TGI in the test with 786-0 renal, in the test with PC-3 prostate, in the test with SF-268 CNS, in the test with HOP-92 NSCLC, in the test on NCI/ADR-RES ovarian and in the test on NCI-H460 lung was over 100 µM each time. The TGI in the test on SNB-75 CNS, with HL-60(TB) leukemia and in the test with UO-31 renal was over 100 µM throughout.
Take `COc1ccc(Nc2c3ccccc3nc3[nH]c4ccccc4c23)cc1`: the GI50 in the test on 786-0 renal is 11.4 µM; in the test with PC-3 prostate, 7.87 µM; in the test on SF-268 CNS, 17.2 µM; with NCI/ADR-RES ovarian it was 18.9 µM; with NCI-H460 lung, 2.28 µM; in the test with RXF 393 renal, over 50 µM. Moreover, the GI50 in the test with HL-60(TB) leukemia was 4.98 µM; in the test with UO-31 renal, 38.9 µM. Further, the TGI was 49.2 µM with 786-0 renal; 28.9 µM in the test with PC-3 prostate; over 50 µM with SF-268 CNS; over 50 µM in the test on NCI/ADR-RES ovarian; over 50 µM in the test on NCI-H460 lung; over 50 µM in the test with RXF 393 renal. Moreover, the TGI in the test on HL-60(TB) leukemia and with UO-31 renal was over 50 µM in each case.
